In US20230144399A1, “QUINOLINE COMPOUNDS FOR THE TREATMENT AND PROPHYLAXIS OF HEPATITIS B VIRUS DISEASE” (Hoffmann-La Roche Inc., priority 2017, published 2023):
pIC50: −log10 of the molar value.

Experiments:
[1] = system: HBV (extracellular HBsAg) in HBV-infected PHH; experiment: Cryopreserved primary human hepatocytes (PHH) HBV infection assay; format: cell-based; conditions: Hepatitis B virus, Hepatocyte, 216 h, 9 days post-compound treatment, extracellular HBsAg by CLIA
Method: This assay is used to confirm the anti-HBV effect of the compounds in HBV PHH infection assay. Cryopreserved PHH (BioreclamationIVT, Lot YJM) was thawed at 37° C. and gently transferred into pre-warmed InVitroGRO HT medium (BioreclamationIVT, Cat. S03317). The mixture was centrifuged at 70 relative centrifugal force (RCF) for 3 minutes at RT, and the supernatant was discarded. Pre-warmed InVitroGRO CP medium (BioreclamationIVT, Cat #S03316) was added to the cell pellet to gently re-suspend cells. The cells were seeded at the density of 5.8×10^4 cells per well to collagen I coated 96-well plate (Gibco, Cat. A1142803) with the InVitroGRO CP medium. All plates were incubated at 37° C. with 5% CO2 and 85% humidity.
At 20 hours after plating, the medium was changed to PHH culture medium (Dulbecco's Modified Eagle Medium (DMEM)/F12 (1:1) (Gibco, Cat. 11320-033), 10% fetal bovine serum (Gibco Cat. 10099141), 100 U/mL penicillin, 100 μg/mL streptomycin (Gibco, Cat. 151401-122), 5 ng/mL human epidermal growth factor (Invitrogen Cat. PHG0311L), 20 ng/mL dexamethasone (Sigma, Cat. D4902) and 250 ng/mL human recombinant insulin (Gibco, Cat. 12585-014)). And the cells were incubated at 37° C. with 5% CO2 and 85% humidity for 4 hours. The medium was then changed to pre-warmed PHH culture medium containing 4% polyethylene glycol (PEG) MW8000 (Sigma, Cat. P1458-50ML) and 1% DMSO (Sigma, Cat. D2650). 5.8×10^6 genomic equivalents of HBV were added into the medium.
At 24 hours post-infection, the cells were gently washed with PBS and refreshed with PHH culture medium supplemented with 1% DMSO, and 0.25 mg/mL Matrix gel (Corning, Cat. 356237) at 200 μL per well. All plates were immediately placed in at 37° C. CO2 incubator. 24 hours later, serial dilutions of compounds made with DMSO were further diluted with the same culture medium (PHH culture medium supplemented with 1% DMSO and 0.25 mg/mL Matrix gel as described above) before they were added to the cells to reach desired final compound concentrations and 1% DMSO concentration. The medium containing the compounds were refreshed every three days.
At 9 days post-compound treatment, extracellular HBsAg level were measured with Chemiluminescence Immuno Assay (CLIA) kit (Autobio, HBsAg Quantitative CLIA). Extracellular HBV DNA was extracted by MagNA Pure 96 system (Roche) and then determined by quantitative PCR with the following primers and probe: […]
HBsAg IC50 and HBV DNA IC50 values were derived from the dose-response curve using 4 parameter logistic curve fit method.

[2] = system: HBV cccDNA (HBeAg level) in HepDES19 cells; experiment: Engineered HepDES19 primary screen assay (HBeAg as surrogate marker for cccDNA); format: cell-based; conditions: Hepatitis B virus, HepDES19, 120 h, read-out: IC50 (HBeAg level, HepDES19 primary screen assay)
Description: The assay was employed to screen for novel cccDNA inhibitors. HepDES19 is a cccDNA-producing cell line. In this cell line, HBeAg in the cell culture supernatant as surrogate marker, as HBeAg production depends on cccDNA level and activity. HepDES19 is an engineered cell line which contains a 1.1 unit length HBV genome, and pgRNA transcription from the transgene is controlled by Tetracycline (Tet). In the absence of Tet, pgRNA transcription will be induced, but HBV e antigen (HBeAg) could not be produced from this pgRNA due to very short leader sequence before the HBeAg start codon and the start codon is disrupted. Only after cccDNA is formed, the missing leader sequence and start codon mutation would be restored from the 3′-terminal redundancy of pgRNA, and then HBeAg could be synthesized. Therefore, HBeAg could be used as a surrogate marker for cccDNA (Zhou, T. et al., Antiviral Res.(2006), 72(2), 116-124; Guo, H. et al., J. Virol. (2007), 81(22), 12472-12484).
HepDES19 cells were seeded at 2×10^6 cells per T150 flask and cultured with the culture medium (Dulbecco's Modified Eagle Medium: Nutrient Mixture F-12 [DMEM-F12, Gibco Cat. 11320-82], 10% Fetal Bovine Serum [FBS, Clontech Cat. 631101], 0.1 mM Non-Essential Amino Acids Solution [NEAA, Gibco Cat. 11140-050], 50 μg/mL Penicillin-Streptomycin [PS, Invitrogen Cat. 15140-163], 500 μg/mL Geneticin [G418, Invitrogen Cat. 10131-027]) containing 3 μg/mL Tet (Sigma, Cat. 87128) for 5 days. Cells were then seeded at 4×10^6 cells per T150 in the same culture medium as described above in the absence of Tet for 8 days. Cells were then harvested and frozen at density of 2×10^6 cells per mL. For compound testing, the frozen cells were thawed and seeded into 96-well plates at a density of 6×10^4 cells per well. At 24 hrs after seeding, half log serial dilutions of compounds made with Dimethyl sulfoxide (DMSO, Sigma, Cat. D2650) were further diluted with the same culture medium as described above before they were added to the cells to reach desired final compound concentrations and 1% DMSO concentration. Plates were then incubated at 37° C. for another 5 days before measurement of HBeAg level and cell viability. Intracellular HBeAg level were measured with enzyme-linked immunosorbent assay (ELISA) kit (Shanghai Kehua Diagnostic Medical Products Co., Ltd). Cell viability was assessed using Cell Counting Kit-8 (Donjindo, Cat. CK04-20). IC50 values were derived from the dose-response curve using 4 parameter logistic curve fit method.
The compounds of the present invention were tested for their capacity to inhibit extracellular HBeAg level as described herein.

## O=C(O)COCCOc1ccc(-c2ccc3cccc(Cl)c3n2)cc1C(F)(F)F [Example 6, 2-[2-[4-(8-chloro-2-quinolyl)-2-(trifluoromethyl)phenoxy]ethoxy]acetic acid]
[1]
  pIC50: 5.08
[2]
  pIC50: 6.27

## COC(=O)[C@H]1C[C@@H](OCCOc2ccc(-c3ccc4ccc(C(F)(F)F)cc4n3)cc2)C1 [Example 9, Cis-methyl 3-[2-[4-[7-(trifluoromethyl)-2-quinolyl]phenoxy]ethoxy]cyclobutanecarboxylate]
[2]
  pIC50: 4.75

## O=C(O)[C@H]1C[C@@H](OCCOc2ccc(-c3ccc4cccc(Cl)c4n3)cc2)C1 [Example 1, Cis-3-[2-[4-(8-chloro-2-quinolyl)phenoxy]ethoxy]cyclobutanecarboxylic acid]
[1]
  pIC50: 7.82
[2]
  pIC50: 8.10

## OCCOc1ccc(-c2ccc3cccc(Cl)c3n2)cc1C(F)(F)F [Example 4, 2-[4-(8-chloro-2-quinolyl)-2-(trifluoromethyl)phenoxy]ethanol]
[1]
  pIC50: 5.17
[2]
  pIC50: 5.67

## O=C(O)C1CC(OCCOc2cc3c(Cl)ccc(Cl)c3nc2-c2ccc(O)cc2)C1 (stereo not shown) [Example 16, 3-[2-[[5,8-dichloro-2-(4-hydroxyphenyl)-3-quinolyl]oxy]ethoxy]cyclobutanecarboxlic acid]
[2]
  pIC50: 5.44

## O=C(O)COCCOc1ccc(-c2ccc3cccc(Cl)c3n2)cc1 [Example 2, 2-[2-[4-(8-chloro-2-quinolyl)phenoxy]ethoxy]acetic acid]
[1]
  pIC50: 6.01
[2]
  pIC50: 6.63

## O=C(O)COCCOc1ccc(-c2cc(C(F)(F)F)c3cccc(Cl)c3n2)cc1 [Example 13, 2-[2-[4-[8-chloro-4-(trifluoromethyl)-2-quinolyl]phenoxy]ethoxy]acetic acid]
[1]
  pIC50: 5.26
[2]
  pIC50: 5.78

## O=C(O)[C@H]1C[C@@H](OCCOc2ccc(-c3ccc4cccc(Cl)c4n3)cc2C(F)(F)F)C1 [Example 5, Cis-3-[2-[4-(8-chloro-2-quinolyl)-2-(trifluoromethyl)phenoxy]ethoxy]cyclobutanecarboxylic acid]
[1]
  pIC50: 5.53
[2]
  pIC50: 5.41

## O=C(O)c1cc(-c2cccc(Br)c2)nc2cc(C(F)(F)F)ccc12 [Example 10, 2-(3-bromophenyl)-7-(trifluoromethyl)quinoline-4-carboxylic acid]
[2]
  pIC50: 4.71

## O=C(O)C1CC(OCCOc2ccc(-c3cc(C(F)(F)F)c4cccc(Cl)c4n3)cc2)C1 (stereo not shown) [Example 12, 3-[2-[4-[8-chloro-4-(trifluoromethyl)-2-quinolyl]phenoxy]ethoxy]cyclobutanecarboxylic acid]
[1]
  pIC50: 5.48
[2]
  pIC50: 6.29

## OCCOc1ccc(-c2ccc3ccc(C(F)(F)F)cc3n2)cc1 [Example 8, 2-[4-[7-(trifluoromethyl)-2-quinolyl]phenoxy]ethanol]
[2]
  pIC50: 4.73

## N#Cc1cc(OCCO[C@H]2C[C@@H](C(=O)O)C2)ccc1-c1ccc2cccc(Cl)c2n1 [Example 7, Cis-3-[2-[4-(8-chloro-2-quinolyl)-3-cyano-phenoxy]ethoxy]cyclobutanecarboxylic acid]
[2]
  pIC50: 4.74

## COc1cc(-c2ccc(OCc3cccc(C(=O)O)c3)cc2)nc2c(Cl)cccc12 [Example 14, 3-[[4-(8-chloro-4-methoxy-2-quinolyl)phenoxy]methyl]benzoic acid]
[2]
  pIC50: 5.73

## COc1ccc(-c2ccc3cccc(Cl)c3n2)cc1C(F)(F)F [Example 3, 8-chloro-2-[4-methoxy-3-(trifluoromethyl)phenyl]quinoline]
[1]
  pIC50: 4.95
[2]
  pIC50: 6.85

## COc1cc2cccc(Cl)c2nc1-c1ccc(OCCO[C@H]2C[C@@H](C(=O)O)C2)cc1 [Example 15, Cis-3-[2-[4-(8-chloro-3-methoxy-2-quinolyl)phenoxy]ethoxy]cyclobutanecarboxylic acid]
[2]
  pIC50: 5.60

## Cc1cc(-c2cccc(Br)c2)nc2cc(C(F)(F)F)ccc12 [Example 11, 2-(3-bromophenyl)-4-methyl-7-(trifluoromethyl)quinoline]
[1]
  pIC50: 5.78
[2]
  pIC50: 5.68
